Results published in PMC9150124, “Design of a Potent, Selective, and Brain-Penetrant Inhibitor of Wnt-Deactivating Enzyme Notum by Optimization of a Crystallographic Fragment Hit” (Journal of Medicinal Chemistry, 2022).
Read-outs that look alike come from different tables or passages of the source.

How the values were obtained:
[1] = Metabolic stability in mouse hepatocytes
[2] = molecular target: kinase named in conditions (Homo sapiens, UniProt P51813); assay: SelectScreen kinase profiling, SSBK ZLyte SP Technology; format: biochemical; conditions: BMX, 10 μM
Method: (§1) Kinase selectivity screening was performed by Thermo Fisher Scientific (Paisley, U.K.) in their SelectScreen Biochemical Kinase Profiling Service. Assay information and data are presented in the Supporting Information.
(§2) Kinase selectivity screening was performed by ThermoFisher Scientific (Paisley, U.K.) in their SelectScreenTM
(§3) Biochemical Kinase Profiling service .

[3] = molecular target: kinase named in conditions (Homo sapiens, UniProt Q52WX2); assay: as above; format: biochemical; conditions: SBK1, 10 μM
Method: as §1, §2, §3

[4] = molecular target: kinase named in conditions (Homo sapiens, UniProt Q05655); assay: as above; format: biochemical; conditions: PRKCD (PKC delta), 10 μM
Method: as §1, §2, §3

[5] = molecular target: kinase named in conditions (Homo sapiens, UniProt P07949); assay: as above; format: biochemical; conditions: RET, 10 μM
Method: as §1, §2, §3

[6] = molecular target: kinase named in conditions (Homo sapiens, UniProt Q9P286); assay: as above; format: biochemical; conditions: PAK7 (KIAA1264), 10 μM
Method: as §1, §2, §3

[7] = molecular target: kinase named in conditions (Homo sapiens, UniProt O75116); assay: as above; format: biochemical; conditions: ROCK2, 10 μM
Method: as §1, §2, §3

[8] = molecular target: kinase named in conditions (Homo sapiens, UniProt P07333); assay: as above; format: biochemical; conditions: CSF1R (FMS), 10 μM
Method: as §1, §2, §3

[9] = molecular target: kinase named in conditions (Homo sapiens, UniProt Q96NX5); assay: as above; format: biochemical; conditions: CAMK1G (CAMKI gamma), 10 μM
Method: as §1, §2, §3

[10] = Metabolic stability in human hepatocytes
CYP1A2 = molecular target: T1, CYP1A2 (Homo sapiens, UniProt P05177); assay: CYP450 inhibition in HLM
T1 sequence (P05177 1-516): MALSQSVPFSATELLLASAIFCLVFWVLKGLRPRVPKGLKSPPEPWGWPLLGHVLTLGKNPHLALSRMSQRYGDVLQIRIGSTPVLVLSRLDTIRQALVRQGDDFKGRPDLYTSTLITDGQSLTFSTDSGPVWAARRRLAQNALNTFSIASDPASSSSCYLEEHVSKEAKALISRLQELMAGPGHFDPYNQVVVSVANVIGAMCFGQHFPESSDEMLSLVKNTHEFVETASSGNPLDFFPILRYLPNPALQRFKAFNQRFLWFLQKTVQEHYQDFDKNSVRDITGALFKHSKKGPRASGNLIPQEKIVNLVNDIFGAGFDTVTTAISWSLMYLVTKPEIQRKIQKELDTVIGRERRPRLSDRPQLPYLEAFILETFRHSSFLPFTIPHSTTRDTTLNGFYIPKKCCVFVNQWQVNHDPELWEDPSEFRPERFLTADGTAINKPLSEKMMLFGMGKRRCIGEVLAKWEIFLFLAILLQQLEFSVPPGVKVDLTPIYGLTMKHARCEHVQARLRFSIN

[11] = Stability in rat liver microsomes
[12] = molecular target: kinase named in conditions (Homo sapiens, UniProt O60285); assay: SelectScreen kinase profiling, SSBK Adapta SP Technology; format: biochemical; conditions: NUAK1 (ARK5), 10 μM
[13] = molecular target: kinase named in conditions (Homo sapiens, UniProt O14986); assay: as above; format: biochemical; conditions: PIP5K1B, 10 μM
[14] = molecular target: kinase named in conditions (Homo sapiens, UniProt Q8TF76); assay: as above; format: biochemical; conditions: GSG2 (Haspin), 10 μM
[15] = molecular target: kinase named in conditions (Homo sapiens, UniProt O75747); assay: as above; format: biochemical; conditions: PIK3C2G (PI3K-C2 gamma), 10 μM
[16] = system: kinase named in conditions; assay: as above; format: biochemical
[17] = molecular target: kinase named in conditions (Homo sapiens, UniProt Q00534); assay: as above; format: biochemical; conditions: CDK6/cyclin D1, 10 μM
[18] = molecular target: kinase named in conditions (Homo sapiens, UniProt Q5S007, G2019S); assay: as above; format: biochemical; conditions: LRRK2 G2019S FL, 10 μM
[19] = molecular target: kinase named in conditions (Homo sapiens, UniProt P50750); assay: as above; format: biochemical; conditions: CDK9/cyclin T1, 10 μM
[20] = molecular target: kinase named in conditions (Homo sapiens, UniProt Q8NEB9); assay: as above; format: biochemical; conditions: PIK3C3 (hVPS34), 10 μM
CYP2C9 = CYP2C9 (Homo sapiens, UniProt P11712); assay: CYP450 inhibition in HLM
MAOA = molecular target: T2, MAOA (Homo sapiens, UniProt P21397); assay: Safety47 MAOA assay; format: biochemical
T2 construct: Eurofins (DiscoverX Safety47)
Method: Screening for off-target pharmacology across multiple drug target classes was performed in the DiscoverX Safety47 panel as the SAFETYscan E/IC50 ELECT service by Eurofins (San Diego CA, U.S.A.). Assay information and data are presented in the Supporting Information.
Safety pharmacology studies
Screening for off-target pharmacology across multiple drug target classes was performed in the DiscoverX Safety47™ panel as the SAFETYscan E/IC50 ELECT service by eurofins (San Diego CA, U.S.A.). The assays were performed utilizing the PathHunter enzyme fragment complementation (EFC) technology, FLIPR®-based cellular screening assays, KINOMEscan kinase binding assays, and a variety of enzymatic assays (78 assays).

[21] = Stability in dog liver microsomes

Sequence of CYP2C9 (P11712 whole entry): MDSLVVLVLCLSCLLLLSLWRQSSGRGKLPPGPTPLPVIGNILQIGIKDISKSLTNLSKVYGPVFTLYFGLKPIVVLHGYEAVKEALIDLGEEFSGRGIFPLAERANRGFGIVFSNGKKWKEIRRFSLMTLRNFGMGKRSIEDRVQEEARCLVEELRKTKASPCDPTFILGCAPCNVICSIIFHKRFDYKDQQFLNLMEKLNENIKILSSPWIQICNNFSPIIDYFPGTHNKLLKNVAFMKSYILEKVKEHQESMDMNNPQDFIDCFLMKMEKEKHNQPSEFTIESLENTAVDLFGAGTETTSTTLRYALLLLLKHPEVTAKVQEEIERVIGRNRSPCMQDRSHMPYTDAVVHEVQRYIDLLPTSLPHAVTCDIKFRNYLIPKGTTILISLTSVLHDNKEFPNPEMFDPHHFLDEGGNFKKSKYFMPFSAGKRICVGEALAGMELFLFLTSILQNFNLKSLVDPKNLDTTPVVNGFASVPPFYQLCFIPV
Sequence of kinase named in conditions (Homo sapiens, UniProt O75116) (O75116 whole entry): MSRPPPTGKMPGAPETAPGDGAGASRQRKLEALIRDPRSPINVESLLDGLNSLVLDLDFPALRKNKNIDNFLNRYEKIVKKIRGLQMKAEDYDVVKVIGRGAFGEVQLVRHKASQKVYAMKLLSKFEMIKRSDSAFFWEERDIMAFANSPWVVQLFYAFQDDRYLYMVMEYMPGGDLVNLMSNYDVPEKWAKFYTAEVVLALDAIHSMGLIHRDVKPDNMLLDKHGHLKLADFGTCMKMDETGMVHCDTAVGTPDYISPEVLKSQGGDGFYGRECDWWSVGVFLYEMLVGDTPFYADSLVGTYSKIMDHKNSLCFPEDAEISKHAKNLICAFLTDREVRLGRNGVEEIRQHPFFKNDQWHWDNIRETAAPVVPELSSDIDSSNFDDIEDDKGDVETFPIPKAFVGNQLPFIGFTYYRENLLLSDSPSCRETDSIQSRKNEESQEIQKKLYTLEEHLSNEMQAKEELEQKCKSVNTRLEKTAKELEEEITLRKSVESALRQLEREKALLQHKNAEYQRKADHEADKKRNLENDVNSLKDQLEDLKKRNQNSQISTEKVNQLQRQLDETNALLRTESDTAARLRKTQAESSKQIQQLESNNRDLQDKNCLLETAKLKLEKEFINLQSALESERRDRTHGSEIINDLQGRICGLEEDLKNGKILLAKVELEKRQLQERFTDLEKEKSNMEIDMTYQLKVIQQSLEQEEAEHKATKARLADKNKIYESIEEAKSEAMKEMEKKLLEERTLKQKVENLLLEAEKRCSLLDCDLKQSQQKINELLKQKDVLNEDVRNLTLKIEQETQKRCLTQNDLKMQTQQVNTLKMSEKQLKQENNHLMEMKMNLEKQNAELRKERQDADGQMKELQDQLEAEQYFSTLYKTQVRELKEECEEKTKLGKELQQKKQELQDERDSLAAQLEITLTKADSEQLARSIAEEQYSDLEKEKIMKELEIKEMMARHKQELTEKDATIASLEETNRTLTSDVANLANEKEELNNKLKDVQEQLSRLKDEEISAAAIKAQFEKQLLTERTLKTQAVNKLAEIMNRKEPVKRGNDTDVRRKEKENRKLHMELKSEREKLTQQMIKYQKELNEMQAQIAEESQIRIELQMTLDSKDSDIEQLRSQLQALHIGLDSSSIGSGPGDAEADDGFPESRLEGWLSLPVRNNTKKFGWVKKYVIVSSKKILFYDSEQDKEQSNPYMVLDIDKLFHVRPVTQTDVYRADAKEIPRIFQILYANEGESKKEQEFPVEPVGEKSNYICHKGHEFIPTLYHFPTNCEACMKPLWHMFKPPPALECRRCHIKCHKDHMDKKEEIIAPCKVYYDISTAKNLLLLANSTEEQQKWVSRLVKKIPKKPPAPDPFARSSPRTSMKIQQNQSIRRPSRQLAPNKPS
Sequence of kinase named in conditions (Homo sapiens, UniProt Q00534) (Q00534 whole entry): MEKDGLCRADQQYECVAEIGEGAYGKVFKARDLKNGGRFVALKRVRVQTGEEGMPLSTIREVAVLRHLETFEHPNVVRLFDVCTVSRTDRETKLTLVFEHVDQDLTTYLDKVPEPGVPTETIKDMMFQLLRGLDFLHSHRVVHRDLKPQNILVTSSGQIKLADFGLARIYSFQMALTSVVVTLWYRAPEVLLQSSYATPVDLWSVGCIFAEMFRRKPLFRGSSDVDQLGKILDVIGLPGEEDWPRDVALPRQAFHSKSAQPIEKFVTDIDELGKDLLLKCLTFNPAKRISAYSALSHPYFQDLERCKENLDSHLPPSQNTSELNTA
Sequence of kinase named in conditions (Homo sapiens, UniProt Q00534) (P24385 whole entry partner): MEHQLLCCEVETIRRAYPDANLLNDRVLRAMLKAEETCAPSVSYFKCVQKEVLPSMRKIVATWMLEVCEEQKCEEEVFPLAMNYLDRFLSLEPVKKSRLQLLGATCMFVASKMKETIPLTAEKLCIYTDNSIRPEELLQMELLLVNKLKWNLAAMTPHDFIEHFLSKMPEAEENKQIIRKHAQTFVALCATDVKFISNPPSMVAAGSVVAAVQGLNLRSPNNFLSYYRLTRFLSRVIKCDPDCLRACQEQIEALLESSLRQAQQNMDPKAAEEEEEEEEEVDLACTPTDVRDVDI
Sequence of kinase named in conditions (Homo sapiens, UniProt P50750) (P50750 whole entry): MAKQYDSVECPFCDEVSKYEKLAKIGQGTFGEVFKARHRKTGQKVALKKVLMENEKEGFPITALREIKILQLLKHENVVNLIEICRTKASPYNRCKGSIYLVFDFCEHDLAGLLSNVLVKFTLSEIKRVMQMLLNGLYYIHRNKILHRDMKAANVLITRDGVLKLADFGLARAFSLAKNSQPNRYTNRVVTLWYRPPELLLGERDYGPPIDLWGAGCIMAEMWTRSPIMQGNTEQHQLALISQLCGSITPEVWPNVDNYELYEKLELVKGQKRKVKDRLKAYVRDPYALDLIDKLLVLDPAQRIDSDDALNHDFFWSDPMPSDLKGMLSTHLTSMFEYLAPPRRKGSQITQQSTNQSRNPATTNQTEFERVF
Sequence of kinase named in conditions (Homo sapiens, UniProt P50750) (O60563 whole entry partner): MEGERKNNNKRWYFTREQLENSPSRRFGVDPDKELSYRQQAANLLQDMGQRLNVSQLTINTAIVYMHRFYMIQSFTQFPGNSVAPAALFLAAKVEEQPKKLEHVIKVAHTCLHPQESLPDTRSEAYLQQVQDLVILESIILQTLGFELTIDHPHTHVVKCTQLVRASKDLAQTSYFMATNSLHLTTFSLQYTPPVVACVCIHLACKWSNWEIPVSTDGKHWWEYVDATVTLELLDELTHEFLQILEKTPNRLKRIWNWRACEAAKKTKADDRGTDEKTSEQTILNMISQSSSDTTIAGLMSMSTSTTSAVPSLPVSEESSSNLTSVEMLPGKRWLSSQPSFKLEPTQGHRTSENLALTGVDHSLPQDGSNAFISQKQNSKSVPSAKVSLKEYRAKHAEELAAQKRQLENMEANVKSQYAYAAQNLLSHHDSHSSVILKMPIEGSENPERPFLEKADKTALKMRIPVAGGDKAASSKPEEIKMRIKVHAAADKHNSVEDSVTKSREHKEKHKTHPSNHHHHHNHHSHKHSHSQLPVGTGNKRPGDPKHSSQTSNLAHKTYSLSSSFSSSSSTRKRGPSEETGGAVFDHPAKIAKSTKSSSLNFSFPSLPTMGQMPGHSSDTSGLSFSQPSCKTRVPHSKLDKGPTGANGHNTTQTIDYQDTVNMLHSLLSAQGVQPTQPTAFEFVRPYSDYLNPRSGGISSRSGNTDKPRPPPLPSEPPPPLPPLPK
Sequence of kinase named in conditions (Homo sapiens, UniProt Q8TF76) (Q8TF76 whole entry): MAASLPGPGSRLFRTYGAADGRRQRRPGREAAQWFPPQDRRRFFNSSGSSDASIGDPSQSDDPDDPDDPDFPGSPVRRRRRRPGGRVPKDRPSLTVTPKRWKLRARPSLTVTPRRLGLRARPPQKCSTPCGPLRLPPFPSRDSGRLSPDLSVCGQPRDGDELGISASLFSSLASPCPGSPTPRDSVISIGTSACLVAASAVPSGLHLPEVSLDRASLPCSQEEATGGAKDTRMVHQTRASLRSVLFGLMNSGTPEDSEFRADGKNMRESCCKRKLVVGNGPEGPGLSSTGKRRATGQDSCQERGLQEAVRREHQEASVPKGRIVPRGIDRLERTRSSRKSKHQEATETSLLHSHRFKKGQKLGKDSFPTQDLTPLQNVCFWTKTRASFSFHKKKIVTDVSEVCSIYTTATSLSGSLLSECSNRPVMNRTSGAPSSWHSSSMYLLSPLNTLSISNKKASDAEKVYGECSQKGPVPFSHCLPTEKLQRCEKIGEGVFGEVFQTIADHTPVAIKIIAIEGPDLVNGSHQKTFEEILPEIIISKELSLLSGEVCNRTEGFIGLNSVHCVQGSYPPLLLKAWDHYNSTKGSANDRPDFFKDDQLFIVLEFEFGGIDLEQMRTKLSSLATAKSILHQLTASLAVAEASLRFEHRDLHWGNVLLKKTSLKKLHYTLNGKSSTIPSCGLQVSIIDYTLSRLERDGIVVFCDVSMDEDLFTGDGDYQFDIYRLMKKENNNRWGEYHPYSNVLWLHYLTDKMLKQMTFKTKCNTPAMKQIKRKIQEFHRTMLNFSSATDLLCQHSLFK
Sequence of kinase named in conditions (Homo sapiens, UniProt Q96NX5) (Q96NX5 whole entry): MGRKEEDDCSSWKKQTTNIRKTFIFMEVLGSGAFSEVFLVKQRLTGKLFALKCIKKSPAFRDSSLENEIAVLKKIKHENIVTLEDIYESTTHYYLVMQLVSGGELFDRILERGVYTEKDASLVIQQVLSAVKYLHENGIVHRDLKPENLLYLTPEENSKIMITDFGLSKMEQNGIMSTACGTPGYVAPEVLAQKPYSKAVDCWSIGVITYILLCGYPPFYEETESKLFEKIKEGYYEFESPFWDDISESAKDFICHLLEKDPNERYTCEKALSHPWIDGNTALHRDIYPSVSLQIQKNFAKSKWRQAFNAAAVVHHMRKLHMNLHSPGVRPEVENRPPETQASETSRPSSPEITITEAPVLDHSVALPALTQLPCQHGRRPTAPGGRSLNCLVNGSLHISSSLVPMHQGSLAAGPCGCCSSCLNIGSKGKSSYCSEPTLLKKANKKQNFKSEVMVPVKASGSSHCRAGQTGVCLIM

In the case of FC(F)(F)c1c(Cl)ccc(-n2ccnn2)c1Cl [8l, 1-(2,4-Dichloro-3-(trifluoromethyl)phenyl)-1H-1,2,3-triazole], the “mouse hepatocytes Cli” value [1] is reported as 19.4 μL/min/10^6 cells, the half-life ([1]; mouse, hepatocytes) is reported as 1.23 h and the inhibition at 10 µM [2] is reported as 7%. It also gave an inhibition at 10 µM [3] of 2%, an inhibition at 10 µM [4] of -4% and an inhibition at 10 µM [5] of 7%. The inhibition at 10 µM [6] was 8%, the inhibition at 10 µM [7] was 16% and the inhibition at 10 µM [8] was 6%. The inhibition at 10 µM [9] was 2%, the half-life [10] was > 3.61 h and the hepatocyte CLint [10] was < 6.4 µL/min/1e6 cells. The IC50 (CYP1A2; read-out: CYP inhibition IC50, 1A2, HLM) was 0.96 µM, the IC50 (CYP1A2; read-out: IC50 CYP1A2/Phenacetin, (+)NADPH pre-incubation) was 0.963 µM and the IC50 (CYP1A2; read-out: IC50 CYP1A2/Phenacetin, (-)NADPH pre-incubation) was 0.964 µM. The “Liver microsome stability Cli, RLM” value [11] was < 9.6 μL/min/mg protein, the half-life ([11]; rat, liver microsomes) was > 2.42 h and the inhibition at 10 µM [12] was -3%. The inhibition at 10 µM [13] was 1%, the inhibition at 10 µM [14] was 10% and the inhibition at 10 µM [15] was 11%. The “% Inhibition mean” value ([16]; DAPK1, 10 μM) was -8%, the “% Inhibition mean” value ([16]; IRAK1, 10 μM) was -10% and the “% Inhibition mean” value ([16]; LRRK2, 10 μM) was -12%. For the same molecule, the “% Inhibition mean” value ([16]; LRRK2 G2019S, 10 μM) was 1%, the “% Inhibition mean” value ([16]; LRRK2 I2020T, 10 μM) was 1% and the “% Inhibition mean” value ([16]; LRRK2 R1441C, 10 μM) was 1%. The “% Inhibition mean” value ([16]; SPHK1, 10 μM) was -8%, the “% Inhibition mean” value ([16]; SPHK2, 10 μM) was 0% and the inhibition at 10 µM [17] was -3%. For the same molecule, the inhibition at 10 µM [18] was 15%, the inhibition at 10 µM [19] was -3% and the inhibition at 10 µM [20] was -5%. The IC50 (CYP2C9) was 19.6 µM, the IC50 (CYP2C9; read-out: CYP inhibition IC50, 2C9, HLM) was 15 µM and the IC50 (CYP2C9; read-out: IC50 CYP2C9/Diclofenac, (+)NADPH pre-incubation) was 15.4 µM. For the same molecule, the IC50 (MAOA) was 28 µM, the “Liver microsome stability Cli, DLM” value [21] was 10.8 μL/min/mg protein and the half-life ([21]; dog, liver microsomes) was 2.14 h.
